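Briefly, cells in 96-well plates were exposed to five compound concentrations for 48 h, and endpoints were estimated by linear interpolation. At the GI50, growth is halved. TGI marks complete inhibition of growth.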
Key:
T-47D breast = experiment: growth of human tumour cells (NCI), 48 h
MDA-N = experiment: growth of human tumour cells (NCI), 48 h

| SMILES | GI50 (T-47D breast) [µM] | TGI (T-47D breast) [µM] | TGI (MDA-N) [µM] |
| --- | --- | --- | --- |
| Cc1ccc(Cc2cnc(NC(=O)/C=C/c3cccc(C)c3)s2)cc1 | 0.577 | > 100 |  |
| C=C(C)[C@@H]1CC[C@]2(C(=O)O)CC[C@]3(C)[C@H](CC[C@@H]4[C@@]5(C)CCC(NC(=O)c6cccc(OC(C)=O)c6OC(C)=O)C(C)(C)[C@@H]5CC[C@]43C)[C@@H]12 (some centres not stated) | 0.628 | > 100 |  |
| Cc1nc2sc(C(=O)Nc3cccc4ccccc34)c(N)c2cc1C(O)c1ccccc1 (configuration not stated) | 0.0527 | 88.6 |  |
| O=C(O)c1ccc(Oc2nccc(-c3c(-c4ccc(F)cc4)ncn3C3CCNCC3)n2)cc1 | > 25 | > 25 |  |
| C=C1C(=O)O[C@H]2[C@H]1CC/C(COC(=O)c1cc3ccccc3o1)=C\CC[C@@]1(C)O[C@@H]21 | 1.35 | 3.32 |  |
| C=C1C(C2(C)C(OC(C)=O)CC(=O)OC(C)(COC(C)=O)C2CC(=O)OC)C(OC=O)C(OC(=O)C(O)C(C)CC)C2(C)C(c3ccoc3)CC(=O)C12O (configuration not stated) |  | > 100 | > 100 |
| COc1ccc(/C(COc2ccc3c(=O)c(-c4ccccc4)coc3c2)=N\O)cc1 | 6.96 | > 37.2 |  |
| CNC/C(Cl)=N/S(=O)(=O)c1ccc(C)cc1 |  |  | 29.5 |
| COc1cc2ncn(-c3cc(O[C@@H](C)c4ccccc4Cl)c(C(N)=O)s3)c2cc1OC | 1.8 | 7.09 |  |
| COc1cccc(/C=C/[N+](=O)[O-])c1 | 2.51 | 9.6 |  |
| C[C@@H](O)[C@H](NC(=O)N[C@@H](CC(N)=O)c1nc([C@@H](N)CO)no1)C(=O)O | > 100 | > 100 |  |
| CS(=O)(=O)CCNCc1ccc(-c2ccc3ncnc(Nc4ccc(OCc5ccccc5)c(Br)c4)c3c2)o1 | 0.821 | 17.4 |  |
| Nc1c2c(c(O)c3c1=C(CO)C=N3)=NCCS2 | 0.224 | 0.484 |  |
| COc1cc2c(cc1OC)-c1ccc3cc4c(cc3c1N(CCCn1ccnc1)C2)OCO4 | 0.358 | 4.27 |  |
| COc1ccc(-c2cc(-c3ccc(Cl)cc3)nc(SCCCC(=O)NO)n2)cc1 | 0.801 | 7.46 |  |
| O=c1cc(N2CCN(CCCCCOc3cc(O)c4c(=O)cc(-c5ccccc5)oc4c3)CC2)c2ccccc2o1 | > 100 | > 100 |  |
| Cc1ccc(NC2=C(Cl)C(=O)N(Cc3ccc(Cl)cc3)C2=O)cc1O | 10.7 | 42.6 |  |

| SMILES | GI50 (T-47D breast) [µM] | TGI (T-47D breast) [µM] | TGI (MDA-N) [µM] |
| --- | --- | --- | --- |
| O=C1CC(=O)N(C(=O)c2nn(-c3ccc(Cl)cc3)cc2O)N1 | 0.431 | > 71.6 |  |
| COc1cc(N2CCC(N3CCN(C)CC3)CC2)ccc1Nc1ncnc(Nc2ccccc2S(=O)(=O)C(C)C)n1 | 5.18 | 39.9 |  |
| C/C(=N\Nc1cc(C)c2ccccc2n1)c1ccccn1 | < 0.0208 | 2.78 |  |
| CCN(Cc1ccccc1)c1ccc(CO)c(Cl)c1 | 0.278 | 2.25 |  |
| COc1ccc(-c2oc(=O)ccc2-c2cc(OC)c(OC)c(OC)c2)cc1O | 0.553 | > 100 |  |
| CCC(=O)Nc1ccccc1C#C/C=C\C#Cc1ccccc1SC | 8.96 | > 100 |  |
| COc1ccc(-c2cc(-c3cccn3C)c(C#N)c(=O)[nH]2)cc1OC | 34.7 | > 100 |  |
| C=C1C(=O)O[C@H]2[C@H]1CC/C(COC(=O)C(=O)c1cn(C)c3ccc(Cl)cc13)=C\CC[C@@]1(C)O[C@@H]21 | 1.46 | 3.27 |  |
| c1cc(N2CCCN(c3ccc(C4=NCCCN4)cc3)CC2)ccc1C1=NCCCN1 | > 100 | > 100 |  |
| COC(=O)c1cc2c3ccccc3n3c(=O)c4cc5ccccc5nc4c(n1)c23 | > 100 | > 100 |  |
| O=C1NC(=O)C(c2ccccc2Cl)=C1Nc1cc(Cl)c(O)c(Cl)c1 | > 15.2 | > 25 |  |
| CNC(=O)c1ccc(N2C(=S)N(c3ccc(C#N)c(C(F)(F)F)c3)C(=O)C2(C)C)cc1F | 27.9 | 97 |  |
| CCCN(CCC)c1ccc(/C=C/c2ccc3cc(OCC)ccc3n2)cc1 | 15.9 | > 100 |  |
| Cc1cc(-c2nc3sccn3c2/C=N/N=C(N)N)c(C)s1 | 17.5 | 32.8 |  |
| CNC(=S)NC(=O)c1c(Cl)n(C(=O)OC(C)(C)C)c2ccccc12 | 44.1 | > 100 |  |
| CC(=O)N1C/C(=C/c2ccc(Cl)cc2)C(=O)/C(=C/c2ccc(Cl)cc2)C1 | 1.31 | 3.24 |  |
| C=C(NC(=O)C(=C)NC(=O)c1csc(C2=NC3c4csc(n4)C4NC(=O)c5csc(n5)C(C(C)(O)C(C)O)NC(=O)C5CSC(=N5)C(=CC)NC(=O)C(C(C)O)NC(=O)c5csc(n5)C3(CC2)NC(=O)C(C)NC(=O)C(=C)NC(=O)C(C)NC(=O)C(C(C)CC)NC2C=Cc3c(C(C)O)cc(nc3C2O)C(=O)OC4C)n1)C(N)=O (configuration not stated) | 4.41 | 80.7 |  |
